Results on one compound are retold here after US20230233540A1, “COMBINATION OF ANTIBODY-DRUG CONJUGATE AND CDK9 INHIBITOR” (AstraZeneca UK Limited, priority 2020, published 2023).

The test system of the assay is HCC1954 breast cancer cells (HER2+ cell line). The assay can be described thus: Antitumor test, subcutaneous HCC1954 breast cancer xenograft, tumor growth inhibition. It is filed as in vivo, CB17-SCID mice. As to conditions: AZD4573 monotherapy in the HCC1954 model. The protocol:
Tumor volume was monitored via caliper measurements, and mice were randomized based on mean tumor size. […] All AZD4573 doses were administered IP, 2 hours apart. A BID regimen was used for 10 mg/kg dose, and TID was used for 5 mg/kg dose. AZD4573 dosing was given weekly thereafter for a total of 3 cycles.
Data represents change in tumor volume over time for treatment groups.

As to `CC(=O)N[C@@H]1CCC[C@H](C(=O)Nc2cc(-c3cnn4c3CC(C)(C)C4)c(Cl)cn2)C1` [AZD4573, (1S,3R)-3-acetamido-N-(5-chloro-4-(5,5-dimethyl-5,6-dihydro-4H-pyrrolo[1,2-b]pyrazol-3-yl)pyridin-2-yl)cyclohexanecarboxamide], the tumor growth control entry is reported as “minimal tumor growth control”.
